This is an account of results in BindingDB's records for doi:10.1016/j.bmcl.2007.08.017 (Johnson & Johnson Pharmaceutical Research and Development, 2007).

This experiment can be described thus: Binding affinity at human histamine H3.

Each structure is given as a SMILES string.

By Ki is commonly meant the dissociation constant of the complex between target and ligand, obtained from inhibition or displacement. Lower therefore signals tighter binding.

Compound `CSc1ccc(C2CN(C)Cc3cccc(Oc4ccnc(CN5CCCCC5)c4)c32)cc1` (configuration not stated) [2-methyl-4-(4-(methylthio)phenyl)-5-(2-(piperidin-1-ylmethyl)pyridin-4-yloxy)-1,2,3,4-tetrahydroisoquinoline] came in with an inhibitory constant (Ki) of 265 nM. This lies in the sub-micromolar range.

The compound `CSc1ccc(C2CN(C)Cc3cccc(Oc4cccc(CN5CCCCC5)c4)c32)cc1` (configuration not stated) [2-methyl-4-(4-(methylthio)phenyl)-5-(3-(piperidin-1-ylmethyl)phenoxy)-1,2,3,4-tetrahydroisoquinoline] came in with a Ki of 253 nM.

The compound `CSc1ccc(C2CN(C)Cc3cccc(Oc4cncc(CN5CCCCC5)c4)c32)cc1` (configuration not stated) [2-methyl-4-(4-(methylthio)phenyl)-5-(5-(piperidin-1-ylmethyl)pyridin-3-yloxy)-1,2,3,4-tetrahydroisoquinoline] gave a Ki of 511 nM.

Take `CSc1ccc(C2CN(C)Cc3cc(Oc4ccnc(CN5CCCCC5)c4)ccc32)cc1` (configuration not stated) [2-methyl-4-(4-(methylthio)phenyl)-7-(2-(piperidin-1-ylmethyl)pyridin-4-yloxy)-1,2,3,4-tetrahydroisoquinoline]: the affinity corresponds to a Ki of 323 nM. Against the preceding compound, the Ki is about 1.6-fold lower.

Turning to `CSc1ccc(C2CN(C)Cc3cc(Oc4nc(CN5CCOCC5)cs4)ccc32)cc1` (configuration not stated) [2-methyl-4-(4-(methylthio)phenyl)-7-(4-(morpholinomethyl)thiazol-2-yloxy)-1,2,3,4-tetrahydroisoquinoline], affinity was put at a Ki of 201 nM.

Compound `CSc1ccc(C2CN(C)Cc3cc(Oc4ccc(CN5CCCCC5)cc4)ccc32)cc1` (configuration not stated) [2-methyl-4-(4-(methylthio)phenyl)-7-(4-(piperidin-1-ylmethyl)phenoxy)-1,2,3,4-tetrahydroisoquinoline] yielded a Ki of 22.7 nM.

`CSc1ccc(C2CN(C)Cc3cc(Oc4cc(CN5CCCCC5)ccn4)ccc32)cc1` (configuration not stated) [2-methyl-4-(4-(methylthio)phenyl)-7-(4-(piperidin-1-ylmethyl)pyridin-2-yloxy)-1,2,3,4-tetrahydroisoquinoline] came in with a Ki of 34.3 nM.

Turning to `CSc1ccc(C2CN(C)Cc3cc(Oc4nc(CN5CCCCC5)cs4)ccc32)cc1` (configuration not stated) [2-methyl-4-(4-(methylthio)phenyl)-7-(4-(piperidin-1-ylmethyl)thiazol-2-yloxy)-1,2,3,4-tetrahydroisoquinoline], the Ki is 20.7 nM.

`CSc1ccc(C2CN(C)Cc3cc(Oc4ccc(CN5CCOCC5)cn4)ccc32)cc1` (configuration not stated) [2-methyl-4-(4-(methylthio)phenyl)-7-(5-(morpholinomethyl)pyridin-2-yloxy)-1,2,3,4-tetrahydroisoquinoline] came in with a Ki of 260 nM.

In turn, `CSc1ccc(C2CN(C)Cc3cc(Oc4ccc(CN5CCCCC5)cn4)ccc32)cc1` (configuration not stated) [2-methyl-4-(4-(methylthio)phenyl)-7-(5-(piperidin-1-ylmethyl)pyridin-2-yloxy)-1,2,3,4-tetrahydroisoquinoline] showed a Ki of 8.2 nM. This Ki is about 32-fold lower than that of the compound before.

Consider `CSc1ccc(C2CN(C)Cc3cc(Oc4cncc(CN5CCCCC5)c4)ccc32)cc1` (configuration not stated) [2-methyl-4-(4-(methylthio)phenyl)-7-(5-(piperidin-1-ylmethyl)pyridin-3-yloxy)-1,2,3,4-tetrahydroisoquinoline], for which the Ki was 109 nM. Against the preceding compound, the Ki is about 13-fold higher.

`CSc1ccc(C2CN(C)Cc3cc(Oc4ncc(CN5CCCCC5)s4)ccc32)cc1` (configuration not stated) [2-methyl-4-(4-(methylthio)phenyl)-7-(5-(piperidin-1-ylmethyl)thiazol-2-yloxy)-1,2,3,4-tetrahydroisoquinoline] came in with a Ki of 20.7 nM.

In turn, `CSc1ccc(C2CN(C)Cc3cc(Oc4cccc(CN5CCCCC5)n4)ccc32)cc1` (configuration not stated) [2-methyl-4-(4-(methylthio)phenyl)-7-(6-(piperidin-1-ylmethyl)pyridin-2-yloxy)-1,2,3,4-tetrahydroisoquinoline] returned a Ki of 51 nM.

In the case of `CSc1ccc(C2CN(C)Cc3cc(Oc4ccc(CN5CCCCC5)nc4)ccc32)cc1` (configuration not stated) [2-methyl-4-(4-(methylthio)phenyl)-7-(6-(piperidin-1-ylmethyl)pyridin-3-yloxy)-1,2,3,4-tetrahydroisoquinoline], the Ki worked out at 24.3 nM. This Ki lies about 2.1-fold lower than the previous one.

`COc1ccc(C2CN(C)Cc3cc(OCCCN4CCCCC4)ncc32)cc1` (configuration not stated) [4-(4-methoxyphenyl)-2-methyl-7-(3-(piperidin-1-yl)propoxy)-1,2,3,4-tetrahydro-2,6-naphthyridine] came in with a Ki of 12 nM.

Turning to `CSc1ccc(C2CN(C)Cc3cc(Oc4ccc(CN5CCC(F)CC5)cn4)ccc32)cc1` (configuration not stated) [7-(5-((4-fluoropiperidin-1-yl)methyl)pyridin-2-yloxy)-2-methyl-4-(4-(methylthio)phenyl)-1,2,3,4-tetrahydroisoquinoline], the Ki was found to be 110 nM.

Consider `CN(C)CCC(Oc1ccccc1)c1ccc(OCCCN2CCCCC2)cc1` (configuration not stated) [N,N-dimethyl-3-phenoxy-3-(4-(3-(piperidin-1-yl)propoxy)phenyl)propan-1-amine], for which the affinity corresponds to a Ki of 0.72 nM.
